The conditions of series [1]: at pH levels less than 4.0; cited from earlier work.
A further series in a line: solubility in water. The series is classed as physicochemical. Conditions: freeze-dried yellow powder. The text has this:
In order to facilitate removal of the aldehyde protective group of the Schiff base and to form the salt of the liberated free base ester, the Schiff base is stirred in water overnight, centrifuged and the insoluble product dried by lyophilization. HPLC and 300 Mhz NMR indicate that the product contains some p-chlorobenzaldehyde and is usually about a 50/50 mixture of the desired methyl ester and the corresponding Schiff base. The mixture is stirred in ethyl acetate to remove the excess aldehyde. The product is then dissolved in a solvent which is inert to the materials, is miscible with water, and can be removed from an aqueous solution as an azeotrope. Tetrahydrofuran or acetonitrile fulfil these requirements. […] A solution of amphotericin B methyl ester Schiff base/free base in tetrahydrofuran is diluted with water to approximately 75% THF but maintained in solution. To this solution is added dilute hydrochloric acid until the appropriate pH is reached. This causes the hydrolysis of the Schiff base and forms the hydochloride salt of amphotericin B methyl ester. The tetrahydrofuran is then removed as an azeotrope with water to obtain an aqueous solution of the AME.HCl and some insoluble material containing part of the aldehyde. The residual aldehyde in the aqueous solution of the AME.HCl is an impurity which can not be readily removed by filtration, centrifuging, or solvent extraction. […]

The nature of the next series: pH of a 1% solution. Format: physicochemical. The procedure:
A mixture of amphotericin B methyl ester and its p-chlorobenzilidine derivative (1.029 g) was dissolved in 40 ml o THF/H2O (4/1) and 0.90 ml of 1.0 M acetic acid solution was added dropwise. Water (40 ml) was added and THF was removed as an azeotrope at reduced pressure and 40° C. The resulting aqueous solution was passed through a column of Amberlite® XAD-2, then freeze-dried to afford 0.654 g of the acetate salt: E^1%1 cm=1100 at 382 nm in MeOH; a 1% solution had pH 5.30.

SMILES strings stand for the structures.

For `COC(=O)[C@H]1[C@@H]2C[C@@H](O[C@@H]3O[C@H](C)[C@@H](O)[C@H](N)[C@@H]3O)/C=C/C=C/C=C/C=C/C=C/C=C/C=C/[C@H](C)[C@@H](O)[C@@H](C)[C@H](C)OC(=O)C[C@H](O)C[C@H](O)CC[C@@H](O)[C@H](O)C[C@H](O)C[C@](O)(C[C@@H]1O)O2` [AME, amphotericin B methyl ester], in series [1], the stability entry was “very unstable”. As to `COC(=O)[C@H]1[C@@H]2C[C@@H](O[C@@H]3O[C@H](C)[C@@H](O)[C@H](N)[C@@H]3O)/C=C/C=C/C=C/C=C/C=C/C=C/C=C/[C@H](C)[C@@H](O)[C@@H](C)[C@H](C)OC(=O)C[C@H](O)C[C@H](O)CC[C@@H](O)[C@H](O)C[C@H](O)C[C@](O)(C[C@@H]1O)O2.Cl` [AME.HCl, amphotericin B methyl ester hydrochloride], the solubility in water entry in “solubility in water” was “highly soluble”.

`CC(=O)O.COC(=O)C1C(O)CC2(O)CC(O)CC(O)C(O)CCC(O)CC(O)CC(=O)OC(C)C(C)C(O)C(C)C=CC=CC=CC=CC=CC=CC=CC(OC3OC(C)C(O)C(N)C3O)CC1O2` (stereo not drawn) [Amphotericin B Methyl Ester Acetate]: in “pH of a 1% solution”, the pH of solution is 5.30.

The values above are taken from patent US6613889B2, “Method for preparing salts of polyene macrolide esters” (BioSource Pharm, Inc., priority 2001, dated 2003).
